The values below come from paper PMC10989010, “A panel of janus kinase inhibitors identified with anti-inflammatory effects protect mice from lethal influenza virus infection” (Antimicrobial Agents and Chemotherapy, 2024).

Structures can show the parent of a compound that is named as a salt.

The test system of one data set is U937 cells. Description: Cytotoxicity assay (CellTiter-Glo). Format: cell-based, human. The note with it: U937 cells; CellTiter-Glo; mean of three independent experiments. The protocol:
The compound cytotoxicity was determined by CellTiter-Glo Assay (Promega, Madison, WI, USA). After adding 15 µL of CellTiter-Glo reagent to each well, plates were incubated at room temperature for 15 minutes with shaking. The luminescence intensity was determined by a multimode plate reader (Wallac Envision, PerkinElmer, MA, USA).
(ATP-based viability assays read luminescence as a measure of living cells.)

Data set [1] has as its system PR8 virus. Description: Viral titers in BALF by TCID50 assay using MDCK cells. Format: in vivo. The note with it: 300 TCID50; 20 mg/kg/d; day 7 p.i.; treated versus untreated mice. The protocol:
Madin-Darby canine kidney (MDCK) cells (ATCC CCL-34™) were maintained in Dulbecco’s modified Eagle’s medium (DMEM, Gibco, Carlsbad, CA) supplemented with 10% fetal bovine serum (Gibco), 100 U/mL penicillin, and 100 µg/mL streptomycin. Human monocyte cell line U937 (CRL-1593.2) was cultured in RPMI 1640 medium supplemented with 10% fetal bovine serum (Gibco), 100 U/mL penicillin, and 100 µg/mL streptomycin. All these cells were maintained at 37℃ in a 5% CO2 incubator. […] The viral titers were measured using 50% tissue culture infective dose (TCID50) assay in MDCK cells. The 10-day-old embryonated chicken eggs were obtained from Guangdong Wens Dahuanong Biotechnology Co., Ltd (Guangdong, China). Six-week-old BALB/c mice were purchased from Guangdong Medical Laboratory Animal Center (GDMLAC, Guangdong, China) and housed under specific pathogen-free conditions.

For data set [2], the system named is PR8 virus. Description: Neutralization assay of mouse sera. Format: in vivo, BALB/c mice. The following applies: for neutralizing antibody titer: 50 TCID50 PR8, 20 mg/kg. The protocol: The neutralization assay was performed to determine the neutralizing titers of sera obtained from mice infected with influenza virus. The procedure involved diluting the sera and subsequently heat-inactivating it at 56℃ for 30 minutes, followed by its combination with 100 TCID50 PR8 virus and incubation at 37℃ for 1 hour. The mixture was added to pre-seeded MDCK cells and incubated at 37℃ for 1 hour. Subsequently, the medium was replaced with fresh DMEM and further cultured at 37℃ for 24 hours. Virus production in the supernatant was quantified by assessing virus neuraminidase activity on a black opaque 96-well plate (PerkinElmer, 6005270) using a substrate of 20 µM 2'-(4-methylumbelliferyl)-α-D-N-acetylneuraminic acid (MUNANA, Sigma, M8639) dissolved in MES solution [33 mmol/L 2-(N-morpholino) ethanesulfonic acid and 4 mmol/L CaCl2, pH = 6.5]. The reaction mixture was then incubated at 37℃ for an additional period of 2 hours. The reaction was terminated by the addition of a stop solution (0.14 mol/L NaOH in 83% ethanol). Fluorescence intensity was measured using multimode plate readers (Varioskan Lux, Thermoscientific, USA) with an excitation wavelength of 355 nm and an emission wavelength of 485 nm. The relative virus production was determined based on the fluorescence intensity, which correlated to the cleavage of MUNANA by viral neuraminidase. The serum neutralization titer, representing the dilution fold of serum required to achieve 50% virus neutralization, was determined using Graphpad software ([47]).

The conditions of data set [3]: stated as reason for selection; no test or reference printed; cited from earlier work.

As for `CNS(=O)(=O)C[C@H]1CC[C@H](N(C)c2ncnc3[nH]ccc23)CC1` [Oclacitinib maleate], in the data set on U937 cells, the CC50 was 50 µM. The “viral titers in the BALF” value in the data set on PR8 virus [1] is recorded as “no significant differences”. Moreover, the “change in neutralization antibody titers compared to untreated mice” value was “slight decrease” in the data set with PR8 virus [2] (14 dpi) and “no difference” with PR8 virus [2] (21 dpi). The neutralizing antibody titer in the data set with PR8 virus [2] (7 dpi) was 177; in the data set on PR8 virus [2] (14 dpi), 690; in the data set on PR8 virus [2] (21 dpi), 1,087. In addition, the water solubility result in data set [3] is “high water solubility”.

One may read the CC50 as the concentration giving 50% cytotoxicity. Low readings indicate harm at low concentration, high ones better tolerance by the cells.
